Measured values from publication PMC6980656 (Cell chemical biology, 2019).
Each block holds one molecule with its values, some of them ahead of it.

How the values were obtained:
Wee1 [1] = target: T1, Wee1 (Homo sapiens, UniProt P30291); assay: Immunoblot of Wee1 degradation in parental MOLT4 cells; format: cell-based
[2] = test system: phosphorylation of CDK1 at Tyr15 (pCDK1 Y15); assay: Immunoblot of pCDK1 Y15 in parental MOLT4 cells; format: cell-based
Wee1 [3] = target: T1, Wee1; assay: KINOMEscan profiling; format: binding; details: 1 μM
PLK1 [4] = target: T2, PLK1 (Homo sapiens, UniProt P53350); assay: KINOMEscan profiling; format: binding; details: 1 μM
T2 sequence (P53350 whole entry): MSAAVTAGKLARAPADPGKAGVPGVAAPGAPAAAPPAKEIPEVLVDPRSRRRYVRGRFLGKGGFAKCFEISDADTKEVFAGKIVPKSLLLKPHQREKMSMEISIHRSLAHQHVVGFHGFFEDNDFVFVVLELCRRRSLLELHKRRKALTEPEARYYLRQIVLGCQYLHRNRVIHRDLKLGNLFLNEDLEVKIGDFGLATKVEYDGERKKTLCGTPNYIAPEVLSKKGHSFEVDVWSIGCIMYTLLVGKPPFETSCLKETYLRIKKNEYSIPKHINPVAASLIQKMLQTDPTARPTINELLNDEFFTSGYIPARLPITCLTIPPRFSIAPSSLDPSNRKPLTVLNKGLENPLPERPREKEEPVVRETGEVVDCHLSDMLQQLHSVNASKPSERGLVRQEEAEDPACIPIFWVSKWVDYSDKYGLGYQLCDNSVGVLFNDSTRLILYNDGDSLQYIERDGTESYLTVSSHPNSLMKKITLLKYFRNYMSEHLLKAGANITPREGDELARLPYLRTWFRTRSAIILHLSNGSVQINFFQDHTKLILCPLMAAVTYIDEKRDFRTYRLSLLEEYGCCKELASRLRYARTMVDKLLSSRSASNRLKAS

[5] = test system: pCDK1 Y15, PARP cleavage, γH2Ax; assay: Immunoblot of downstream markers; format: cell-based; details: MOLT4 cells; for downstream changes (pCDK1 Y15, PARP cleavage, γH2Ax): 100 nM
MOLT4 cells [6] = assay: Cell cycle analysis by propidium iodide staining, parental MOLT4; format: cell-based; details: PI staining; for effect on cell cycle (G2/M proportion): 100 nM
[7] = test system: MCF10A non-transformed mammary epithelial cell line; assay: Image-based cell cycle assay in MCF10A
MOLT4 cells [8] = assay: CellTiter-Glo cell viability, parental MOLT4; format: cell-based; details: for IC50: Homo sapiens, MOLT-4, 72 h, read-out: IC50, antiproliferative activity
OVCAR8 cells = assay: Synergy co-treatment, CellTiter-Glo in OVCAR8 cells; format: cell-based; details: for synergy with Olaparib: 72 hr co-treatment
Wee1 [9] = target: T1, Wee1; assay: LanthaScreen FRET-based assay; format: binding; details: for engagement of recombinant Wee1: LanthaScreen, Table S1
Wee1 [10] = target: T1, Wee1; assay: Immunoblot of Wee1 degradation in CRBN−/− MOLT4 cells; format: cell-based; details: 5 hrs
[11] = test system: phosphorylation of CDK1 at Tyr15 (pCDK1 Y15); assay: Immunoblot of pCDK1 Y15 in CRBN−/− MOLT4 cells; format: cell-based; details: 5 hrs
PLK1 [12] = target: T2, PLK1; assay: PLK1 abundance by proteomics and immunoblot in MOLT4 cells; format: cell-based; details: proteomics (100 nM, 2 hrs) or immunoblot
ZFP91 = ZFP91 (Homo sapiens, UniProt Q96JP5+Q96SW2); assay: ZFP91 abundance by proteomics in MOLT4 cells; format: cell-based; details: 100 nM, 2 hrs
ZFP91, sequence (Q96JP5 whole entry): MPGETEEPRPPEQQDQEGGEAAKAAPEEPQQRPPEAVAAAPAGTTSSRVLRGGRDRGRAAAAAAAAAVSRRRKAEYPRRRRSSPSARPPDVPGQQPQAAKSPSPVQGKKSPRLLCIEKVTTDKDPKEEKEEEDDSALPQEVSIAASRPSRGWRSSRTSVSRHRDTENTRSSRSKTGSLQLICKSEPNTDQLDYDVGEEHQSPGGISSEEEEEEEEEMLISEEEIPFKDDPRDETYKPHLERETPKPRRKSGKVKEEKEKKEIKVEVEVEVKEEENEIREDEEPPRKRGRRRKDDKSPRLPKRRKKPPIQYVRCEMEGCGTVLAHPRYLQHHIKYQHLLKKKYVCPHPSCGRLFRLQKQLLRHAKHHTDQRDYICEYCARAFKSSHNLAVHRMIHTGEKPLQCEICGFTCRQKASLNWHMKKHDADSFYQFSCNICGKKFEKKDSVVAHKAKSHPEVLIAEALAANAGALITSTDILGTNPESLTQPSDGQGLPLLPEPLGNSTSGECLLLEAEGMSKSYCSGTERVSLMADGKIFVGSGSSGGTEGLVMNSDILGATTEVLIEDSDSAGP
ZFP91, sequence (Q96SW2 whole entry): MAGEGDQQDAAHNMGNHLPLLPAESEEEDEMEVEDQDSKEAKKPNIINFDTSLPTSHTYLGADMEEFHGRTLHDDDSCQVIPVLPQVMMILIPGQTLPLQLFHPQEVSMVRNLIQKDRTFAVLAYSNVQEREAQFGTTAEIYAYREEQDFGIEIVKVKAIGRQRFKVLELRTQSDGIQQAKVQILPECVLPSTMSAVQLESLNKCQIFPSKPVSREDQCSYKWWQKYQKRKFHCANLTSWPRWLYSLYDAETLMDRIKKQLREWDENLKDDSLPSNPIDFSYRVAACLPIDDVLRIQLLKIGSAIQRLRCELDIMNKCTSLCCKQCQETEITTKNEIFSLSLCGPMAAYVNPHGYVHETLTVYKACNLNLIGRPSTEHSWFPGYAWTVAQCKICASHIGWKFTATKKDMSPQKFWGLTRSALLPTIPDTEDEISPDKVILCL
ZFP91, sequence (Q16531 whole entry partner): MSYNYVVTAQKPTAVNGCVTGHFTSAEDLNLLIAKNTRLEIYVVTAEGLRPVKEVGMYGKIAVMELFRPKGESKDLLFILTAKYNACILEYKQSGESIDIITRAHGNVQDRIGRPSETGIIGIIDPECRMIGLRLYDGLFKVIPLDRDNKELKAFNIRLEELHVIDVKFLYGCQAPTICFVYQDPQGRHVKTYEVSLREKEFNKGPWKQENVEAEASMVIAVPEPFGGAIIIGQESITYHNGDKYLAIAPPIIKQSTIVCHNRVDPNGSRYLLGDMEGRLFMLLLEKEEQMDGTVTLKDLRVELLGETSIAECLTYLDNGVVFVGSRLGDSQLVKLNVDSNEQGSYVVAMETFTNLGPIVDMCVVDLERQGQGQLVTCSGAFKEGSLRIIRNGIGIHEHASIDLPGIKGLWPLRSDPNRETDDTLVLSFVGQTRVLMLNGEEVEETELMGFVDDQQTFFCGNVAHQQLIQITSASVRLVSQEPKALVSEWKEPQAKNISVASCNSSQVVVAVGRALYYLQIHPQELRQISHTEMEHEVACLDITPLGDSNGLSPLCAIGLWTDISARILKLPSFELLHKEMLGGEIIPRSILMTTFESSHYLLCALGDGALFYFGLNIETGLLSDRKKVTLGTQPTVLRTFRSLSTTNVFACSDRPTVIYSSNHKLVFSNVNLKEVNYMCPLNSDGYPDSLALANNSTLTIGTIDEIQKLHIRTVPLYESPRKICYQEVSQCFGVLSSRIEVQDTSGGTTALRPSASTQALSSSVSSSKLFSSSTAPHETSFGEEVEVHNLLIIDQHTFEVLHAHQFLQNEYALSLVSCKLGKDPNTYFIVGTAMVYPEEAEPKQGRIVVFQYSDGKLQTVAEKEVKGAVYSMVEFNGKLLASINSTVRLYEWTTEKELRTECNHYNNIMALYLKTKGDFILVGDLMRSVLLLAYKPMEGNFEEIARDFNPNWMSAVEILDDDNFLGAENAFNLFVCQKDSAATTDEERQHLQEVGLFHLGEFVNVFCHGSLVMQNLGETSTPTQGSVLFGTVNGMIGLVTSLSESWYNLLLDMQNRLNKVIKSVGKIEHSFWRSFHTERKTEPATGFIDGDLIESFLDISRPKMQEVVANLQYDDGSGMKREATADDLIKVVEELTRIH

Ikaros (IKZF1) = Ikaros (IKZF1) (Homo sapiens, UniProt Q13422+Q96SW2); assay: IKZF1 degradation, proteomics/immunoblotting; format: cell-based
Ikaros (IKZF1), sequence (Q13422 whole entry): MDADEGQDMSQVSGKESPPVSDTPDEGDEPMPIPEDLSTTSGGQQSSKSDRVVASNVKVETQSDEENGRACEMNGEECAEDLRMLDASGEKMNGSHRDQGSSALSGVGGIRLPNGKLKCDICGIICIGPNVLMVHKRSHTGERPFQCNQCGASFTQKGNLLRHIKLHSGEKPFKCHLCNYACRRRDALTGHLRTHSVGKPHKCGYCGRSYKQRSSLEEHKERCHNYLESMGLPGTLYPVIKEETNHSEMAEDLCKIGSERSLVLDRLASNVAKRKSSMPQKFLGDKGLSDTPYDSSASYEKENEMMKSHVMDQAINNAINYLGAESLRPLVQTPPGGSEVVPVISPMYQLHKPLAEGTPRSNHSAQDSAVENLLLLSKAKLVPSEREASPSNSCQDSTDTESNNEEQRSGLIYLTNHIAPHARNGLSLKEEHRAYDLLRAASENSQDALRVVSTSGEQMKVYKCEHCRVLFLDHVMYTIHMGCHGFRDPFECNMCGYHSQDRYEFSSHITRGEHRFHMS
Ikaros (IKZF1), sequence (Q96SW2 whole entry): as the sequence (Q96SW2 whole entry) above
Ikaros (IKZF1), sequence (Q16531 whole entry partner): as the sequence (Q16531 whole entry partner) above

Aiolos (IKZF3) = Aiolos (IKZF3) (Homo sapiens, UniProt Q96SW2+Q9UKT9); assay: IKZF3 degradation, proteomics/immunoblotting; format: cell-based
Aiolos (IKZF3), sequence (Q9UKT9 whole entry): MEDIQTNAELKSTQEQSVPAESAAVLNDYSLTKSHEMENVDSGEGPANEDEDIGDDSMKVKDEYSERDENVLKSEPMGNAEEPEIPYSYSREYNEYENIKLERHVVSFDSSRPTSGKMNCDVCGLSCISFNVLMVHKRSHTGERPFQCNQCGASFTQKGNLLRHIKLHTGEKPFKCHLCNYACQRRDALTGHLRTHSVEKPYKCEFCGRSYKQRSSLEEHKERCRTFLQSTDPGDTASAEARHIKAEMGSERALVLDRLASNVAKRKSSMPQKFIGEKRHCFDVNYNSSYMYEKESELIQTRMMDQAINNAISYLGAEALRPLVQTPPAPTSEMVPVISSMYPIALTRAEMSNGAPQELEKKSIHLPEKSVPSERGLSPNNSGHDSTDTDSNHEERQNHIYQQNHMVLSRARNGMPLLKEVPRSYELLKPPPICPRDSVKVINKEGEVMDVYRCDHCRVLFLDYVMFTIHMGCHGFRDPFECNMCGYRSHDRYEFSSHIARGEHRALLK
Aiolos (IKZF3), sequence (Q96SW2 whole entry): as the sequence (Q96SW2 whole entry) above
Aiolos (IKZF3), sequence (Q16531 whole entry partner): as the sequence (Q16531 whole entry partner) above

CRBN−/− MOLT4 cells = assay: Cell cycle analysis by propidium iodide staining, CRBN−/− MOLT4; format: cell-based; details: 100 nM, 24 hrs
[13] = test system: BT549, HCC1806, COV362, Kuramochi, OVCAR8 cell lines; assay: Image-based cell cycle assay in TNBC and ovarian cancer cell lines
MOLT4 CRBN−/− cells = assay: CellTiter-Glo cell viability, CRBN−/− MOLT4; format: cell-based; details: 72 hrs
[14] = test system: 300 suspension and hematopoietic cancer cell lines; assay: PRISM pooled cytotoxicity assay; format: cell-based
[15] = test system: OVCAR8, COV283, and Kuramochi ovarian cancer cell lines; assay: Viability in ovarian cancer cell line panel; format: cell-based
[16] = test system: OCE1 non-malignant ovarian line; assay: Viability in non-malignant ovarian line; format: cell-based
Wee1 [17] = target: T1, Wee1; assay: Wee1 degradation in OVCAR8 cells; format: cell-based
[18] = MOLT4 cells, 2 hrs pretreatment then 5 hrs co-treatment
[19] = 24 hr treatment, immunoblotting

T1 sequence (P30291 whole entry): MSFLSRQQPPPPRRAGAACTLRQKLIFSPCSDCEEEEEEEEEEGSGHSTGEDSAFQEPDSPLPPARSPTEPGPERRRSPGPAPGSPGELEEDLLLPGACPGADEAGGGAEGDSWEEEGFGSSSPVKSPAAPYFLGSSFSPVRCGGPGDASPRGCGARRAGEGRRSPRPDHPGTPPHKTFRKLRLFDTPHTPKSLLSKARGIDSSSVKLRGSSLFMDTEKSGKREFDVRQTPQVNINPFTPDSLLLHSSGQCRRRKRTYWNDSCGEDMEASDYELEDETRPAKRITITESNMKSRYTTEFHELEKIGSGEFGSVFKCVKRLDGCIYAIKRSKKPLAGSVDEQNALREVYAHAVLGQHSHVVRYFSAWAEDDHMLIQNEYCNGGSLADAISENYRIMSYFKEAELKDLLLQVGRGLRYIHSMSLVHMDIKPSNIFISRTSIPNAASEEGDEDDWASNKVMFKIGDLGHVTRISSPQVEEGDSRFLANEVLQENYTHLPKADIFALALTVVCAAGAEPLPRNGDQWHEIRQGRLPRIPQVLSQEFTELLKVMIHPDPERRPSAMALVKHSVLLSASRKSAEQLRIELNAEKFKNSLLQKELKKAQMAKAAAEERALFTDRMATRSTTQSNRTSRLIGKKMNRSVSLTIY

- Wee1 degradation (immunoblot, in words) (Wee1 [1]; MOLT4 cells, 5 hr treatment): insufficient to induce Wee1 degradation
- KINOMEscan engagement of Wee1 (Wee1 [3]): strong engagement
- KINOMEscan engagement of PLK1 (PLK1 [4]): strong engagement
SMILES: C=CCn1c(=O)c2cnc(Nc3ccc(N4CCN(C)CC4)cc3)nc2n1-c1cccc(C(C)(C)O)n1 [AZD1775, reference compound]
- effect on pCDK1 Y15 ([2]; MOLT4 cells, 1 μM pretreatment alone, independent of ZNL-02-096 co-treatment): decreased pCDK1 Y15
- concentration necessary to produce the same downstream changes ([5]; 24 hr): 1 µM
- downstream changes (pCDK1 Y15, PARP cleavage, γH2Ax) ([5]; 24 hr): did not produce these downstream changes
- effect on cell cycle (G2/M proportion) (MOLT4 cells [6]): did not appreciably affect the cell cycle
- dose needed to elicit the same cell cycle changes as 100 nM ZNL-02-096 (MOLT4 cells [6]): 1 µM
- cell cycle changes [7]: neither ZNL-02-096 nor AZD1775 induced significant cell cycle changes
- IC50 (MOLT4 cells [8]): 800 nM

- Wee1 degradation (immunoblot, in words) (Wee1 [1]; MOLT4 cells, 5 hr treatment): insufficient to induce Wee1 degradation
SMILES: Nc1cccc2c1C(=O)N(C1CCC(=O)NC1=O)C2=O (stereo not shown) [pomalidomide, reference compound]
- effect on pCDK1 Y15, apoptosis, DNA damage ([5]; 24 hr, 1 μM): did not affect phosphorylation of CDK1 Y15, apoptosis, or levels of DNA damage
- cytotoxicity (MOLT4 cells [8]; alone, Fig. S3): no detectable cytotoxicity
- synergy with Olaparib (OVCAR8 cells): not synergistic
- synergy with AZD1775 (OVCAR8 cells; co-treatment): not synergistic

- engagement of recombinant Wee1 (Wee1 [9]): potently engaged recombinant Wee1
- Wee1 degradation (immunoblot, in words) (Wee1 [1]; MOLT4 cells, 5 hr treatment): induced Wee1 degradation
SMILES: C=CCn1c(=O)c2cnc(Nc3ccc(N4CCN(CCCCCCNc5cccc6c5C(=O)N(C5CCC(=O)NC5=O)C6=O)CC4)cc3)nc2n1-c1cccc(C(C)(C)O)n1 (stereo not shown) [ZNL-02-040, 4-((6-(4-(4-((2-Allyl-1-(6-(2-hydroxypropan-2-yl)pyridin-2-yl)-3-oxo-2,3-dihydro-1H-pyrazolo[3,4-d]pyrimidin-6-yl)amino)phenyl)piperazin-1-yl)hexyl)amino)-2-(2,6-dioxopiperidin-3-yl)isoindoline-1,3-dione]

- IC50 (Wee1 [9]): 1 to 10 nM
- Wee1 degradation (immunoblot, in words) (Wee1 [1]; MOLT4 cells, 5 hr treatment): induced Wee1 degradation
- concentration required to achieve maximal Wee1 degradation (Wee1 [1]; MOLT4 cells, 5 hr treatment): 1 µM
SMILES: C=CCn1c(=O)c2cnc(Nc3ccc(N4CCN(CCCNC(=O)CCOCCOCCNc5cccc6c5C(=O)N(C5CCC(=O)NC5=O)C6=O)CC4)cc3)nc2n1-c1cccc(C(C)(C)O)n1 (stereo not shown) [ZNL-02-012, N-(3-(4-(4-((2-allyl-1-(6-(2-hydroxypropan-2-yl)pyridin-2-yl)-3-oxo-2,3-dihydro-1H-pyrazolo[3,4-d]pyrimidin-6-yl)amino)phenyl)piperazin-1-yl)propyl)-3-(2-(2-((2-(2,6-dioxopiperidin-3-yl)-1,3-dioxoisoindolin-4-yl)amino)ethoxy)ethoxy)propenamide]

SMILES: C=CCn1c(=O)c2cnc(Nc3ccc(N4CCN(CCCNc5cccc6c5C(=O)N(C5CCC(=O)NC5=O)C6=O)CC4)cc3)nc2n1-c1cccc(C(C)(C)O)n1 (stereo not shown) [ZNL-02-096, 4-((3-(4-(4-((2-Allyl-1-(6-(2-hydroxypropan-2-yl)pyridin-2-yl)-3-oxo-2,3-dihydro-1H-pyrazolo[3,4-d]pyrimidin-6-yl)amino)phenyl)piperazin-1-yl)propyl)amino)-2-(2,6-dioxopiperidin-3-yl)isoindoline-1,3-dione]
- engagement of recombinant Wee1 (Wee1 [9]): potently engaged recombinant Wee1
- time to complete Wee1 degradation (Wee1 [1]; MOLT4 cells, 100 nM): ≤ 3 h
- Wee1 degradation (Wee1 [1]; MOLT4 cells, 100 nM, within 30 min): over 50%
- Wee1 degradation by ZNL-02-096 after MLN4924 pretreatment (Wee1 [1]; [18]): prevented
- Wee1 degradation by ZNL-02-096 after carfilzomib pretreatment (Wee1 [1]; [18]): rescued
- Wee1 degradation by ZNL-02-096 after pretreatment with excess AZD1775 (Wee1 [1]; [18]): prevented ZNL-02-096-induced Wee1 degradation
- Wee1 degradation by ZNL-02-096 after pretreatment with excess pomalidomide (Wee1 [1]; [18]): only partial rescue
- Wee1 degradation (immunoblot, in words) (Wee1 [1]; MOLT4 cells, 5 hr treatment): degradation was most pronounced
- duration of sustained Wee1 loss (Wee1 [1]; MOLT4 cells, single 100 nM treatment): at least 48 hrs
- concentration of maximal Wee1 degradation (Wee1 [1]; parental MOLT4 cells, 5 hrs): 100 nM
- concentration at which hook effect is apparent (Wee1 [1]; parental MOLT4 cells, 5 hrs, top concentration): 10 µM
- effect on Wee1 abundance (Wee1 [10]): did not affect Wee1 abundance
- dose from which pCDK1 Y15 is reduced ([2]; parental MOLT4 cells, 5 hrs): 100 nM
- dose from which pCDK1 Y15 is decreased [11]: 1 μM
- KINOMEscan engagement of Wee1 (Wee1 [3]): strong engagement
- KINOMEscan engagement of PLK1 (PLK1 [4]): strong engagement
- PLK1 downregulation (PLK1 [12]): No downregulation of PLK1
- ZFP91 degradation (ZFP91): low levels of ZFP91 degradation
- IKZF1 degradation (Ikaros (IKZF1); [19]): degradation of both IKZF1 and IKZF3 was apparent
- IKZF1 degradation (Ikaros (IKZF1); short time points): no degradation of either IKZF1 or IKZF3
- IKZF3 degradation (Aiolos (IKZF3); [19]): degradation of both IKZF1 and IKZF3 was apparent
- IKZF3 degradation (Aiolos (IKZF3); short time points): no degradation of either IKZF1 or IKZF3
- fold lower dose than AZD1775 for the same downstream effects [5]: 10 fold
- concentration producing reduced pCDK1 Y15, PARP cleavage and γH2Ax ([5]; 24 hr): 100 nM
- effect on cell cycle (G2/M proportion) (MOLT4 cells [6]): increased the proportion of MOLT4 cells in G2/M in a time-dependent manner
- G2/M accumulation (CRBN−/− MOLT4 cells): absent
- G2/M phase accumulation [13]: induced G2/M phase accumulation at lower doses than either ZNL-02-178 or AZD1775
- cell cycle changes [7]: neither ZNL-02-096 nor AZD1775 induced significant cell cycle changes
- IC50 (MOLT4 cells [8]): 390 nM
- shift in IC50, MOLT4 CRBN−/− versus parental cells (MOLT4 CRBN−/− cells): approximately 6 fold
- IC50 ([14]; read-out: IC50, PRISM): < 1000 nM
- cell death [15]: induced potent cell death
- cytotoxicity [16]: little cytotoxicity
- concentration of maximal Wee1 degradation (Wee1 [17]): 100 nM
- synergy with Olaparib (OVCAR8 cells): synergized with Olaparib

- IC50 (Wee1 [9]): 1 to 10 nM
- Wee1 degradation (immunoblot, in words) (Wee1 [1]; MOLT4 cells, 5 hr treatment): induced Wee1 degradation
- concentration sufficient to degrade Wee1 (Wee1 [1]; MOLT4 cells, 5 hr treatment): 100 nM
SMILES: C=CCn1c(=O)c2cnc(Nc3ccc(N4CCN(CCOCCOCCOCCNc5cccc6c5C(=O)N(C5CCC(=O)NC5=O)C6=O)CC4)cc3)nc2n1-c1cccc(C(C)(C)O)n1 (stereo not shown) [ZNL-02-047, 4-((2-(2-(2-(2-(4-(4-((2-Allyl-1-(6-(2-hydroxypropan-2-yl)pyridin-2-yl)-3-oxo-2,3-dihydro-1H-pyrazolo[3,4-d]pyrimidin-6-yl)amino)phenyl)piperazin-1-yl)ethoxy)ethoxy)ethoxy)ethyl)amino)-2-(2,6-dioxopiperidin-3-yl)isoindoline-1,3-dione]

- Wee1 degradation (immunoblot, in words) (Wee1 [1]; MOLT4 cells, 5 hr treatment): inhibits but does not degrade Wee1
- effect on Wee1 protein levels (Wee1 [1]; MOLT4 cells, out to 48 hrs after treatment): no effect on Wee1 protein levels
SMILES: C=CCn1c(=O)c2cnc(Nc3ccc(N4CCN(CCCNc5cccc6c5C(=O)N(C5CCC(=O)N(C)C5=O)C6=O)CC4)cc3)nc2n1-c1cccc(C(C)(C)O)n1 (stereo not shown) [ZNL-02-178, 4-((3-(4-(4-((2-allyl-1-(6-(2-hydroxypropan-2-yl)pyridin-2-yl)-3-oxo-2,3-dihydro-1H-pyrazolo[3,4-d]pyrimidin-6-yl)amino)phenyl)piperazin-1-yl)propyl)amino)-2-(1-methyl-2,6-dioxopiperidin-3-yl)is oindoline-1,3-dione]
- downstream changes (pCDK1 Y15, PARP cleavage, γH2Ax) ([5]; 24 hr): did not produce these downstream changes
- effect on cell cycle (G2/M proportion) (MOLT4 cells [6]): did not appreciably affect the cell cycle
- potency in PRISM relative to ZNL-02-096 [14]: uniformly less potent
- synergy with Olaparib (OVCAR8 cells): less synergistic activity with Olaparib than ZNL-02-096 at low doses
